Reference: ChEMBL document CHEMBL3882732, “4,5-diaryl-3(2H)-furanone derivatives as cyclooxygenase-2 inhibitors” (2002)
Each block holds one compound with its values, some of them ahead of it.

Experiments:
[1] = molecular target: T1, Prostaglandin G/H synthase 1 (Mus musculus, UniProt P22437); experiment: Inhibition of COX1 in C57BL/6 mouse peritoneal macrophages assessed as reduction in PGE2 formation pre-incubated for 2 hrs followed by arachidonic acid addition and measured after 10 mins by radio-immuno assay or enzyme-immunoassay
T1 sequence (P22437 whole entry): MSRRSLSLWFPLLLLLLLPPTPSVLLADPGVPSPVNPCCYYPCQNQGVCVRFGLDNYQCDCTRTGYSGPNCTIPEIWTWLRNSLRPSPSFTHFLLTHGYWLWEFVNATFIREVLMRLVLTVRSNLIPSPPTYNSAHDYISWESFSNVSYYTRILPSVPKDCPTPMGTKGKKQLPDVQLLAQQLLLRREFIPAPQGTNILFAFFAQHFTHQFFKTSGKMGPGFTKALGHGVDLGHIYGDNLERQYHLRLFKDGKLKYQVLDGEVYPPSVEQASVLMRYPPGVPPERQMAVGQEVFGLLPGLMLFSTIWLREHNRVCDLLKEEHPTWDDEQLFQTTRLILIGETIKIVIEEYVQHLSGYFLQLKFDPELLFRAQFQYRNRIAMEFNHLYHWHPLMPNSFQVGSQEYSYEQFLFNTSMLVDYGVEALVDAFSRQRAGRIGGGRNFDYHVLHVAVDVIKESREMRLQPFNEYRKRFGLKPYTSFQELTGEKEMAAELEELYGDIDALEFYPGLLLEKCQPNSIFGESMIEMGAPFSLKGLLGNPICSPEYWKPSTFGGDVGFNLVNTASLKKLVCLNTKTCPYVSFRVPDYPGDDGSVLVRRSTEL

[2] = Drug level in Sprague-Dawley rat blood treated with 4-(3-Chlorophenyl)-2,2-dimethyl-5-{4-(methylsulfinyl)phenyl}-3(2H)-furanone at 10 mg/kg dosed through oral gavage assessed as sulfoxide to sulfonyl bio-transformation by measuring compound level measured after 24 to 48 hrs by HPLC method; assay type: ADME, organism-based; conditions: in vivo
[3] = Drug metabolism in Sprague-Dawley rat blood assessed as sulfoxide to sulfonyl bio-transformation by measuring compound-62 level at 10 mg/kg dosed through oral gavage measured after 24 to 48 hrs by HPLC method; assay type: ADME, organism-based; conditions: in vivo
Rattus norvegicus [4] = experiment: Anti-inflammatory activity in Sprague-Dawley rat assessed as inhibition of carrageenan-induced foot edema at 3 mg/kg dosed through oral gavage 1 hr before carrageenan challenge and measured 3 hrs after carrageenan challenge; assay type: functional
[5] = molecular target: T2, Prostaglandin G/H synthase 2 (Mus musculus, UniProt Q05769); experiment: Inhibition of COX2 in C57BL/6 mouse peritoneal macrophages assessed as reduction in PGE2 formation pre-incubated for 2 hrs before LPS stimulation for 16 hrs followed by arachidonic acid addition and measured after 10 mins in presence of 500 uM aspirin by radio-immuno assay or enzyme-immunoassay
T2 sequence (Q05769 whole entry): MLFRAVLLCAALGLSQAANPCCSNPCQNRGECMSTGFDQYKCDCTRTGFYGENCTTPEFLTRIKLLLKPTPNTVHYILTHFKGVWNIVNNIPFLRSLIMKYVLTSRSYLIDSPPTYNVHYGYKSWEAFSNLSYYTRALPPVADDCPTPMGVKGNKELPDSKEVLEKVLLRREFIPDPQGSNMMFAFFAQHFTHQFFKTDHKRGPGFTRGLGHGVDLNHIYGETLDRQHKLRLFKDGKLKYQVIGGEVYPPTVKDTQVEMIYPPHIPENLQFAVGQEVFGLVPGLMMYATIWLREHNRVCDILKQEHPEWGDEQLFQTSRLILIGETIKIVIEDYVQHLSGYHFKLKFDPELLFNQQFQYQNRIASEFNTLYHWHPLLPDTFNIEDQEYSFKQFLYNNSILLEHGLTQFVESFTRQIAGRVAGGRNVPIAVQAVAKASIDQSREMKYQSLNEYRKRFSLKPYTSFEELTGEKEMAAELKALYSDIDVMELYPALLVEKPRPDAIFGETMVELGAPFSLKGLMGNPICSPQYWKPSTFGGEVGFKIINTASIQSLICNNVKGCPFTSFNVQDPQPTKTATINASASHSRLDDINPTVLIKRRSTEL

Rattus norvegicus [6] = experiment: Anti-inflammatory activity in Sprague-Dawley rat model of […] Freund's adjuvant-induced arthritis assessed as inhibition of adjuvant-induced arthritis dosed through oral gavage daily once beginning on day 14 after adjuvant injection and continued till day 22 after adjuvant injection by displacement plethysmometry; assay type: functional
Mus musculus = experiment: Analgesic activity in ICR mouse assessed as reduction in number of abdominal constrictions dosed through oral gavage one hr before acetic acid challenge measured after 6 mins post acetic acid challenge by acetic acid-induced writhing test; assay type: functional; conditions: Abdomen, 0.1 h

IC50 [1]: 24.4 µM
SMILES: CC(C)c1ccc(C2=C(c3ccc(S(C)(=O)=O)cc3)OC3(CCCC3)C2=O)cc1

Drug metabolism [2]: Metabolite_Detected
SMILES: CC1(C)OC(c2ccc(S(C)(=O)=O)cc2)=C(c2cccc(Cl)c2)C1=O

Drug metabolism [3]: Metabolite_Detected
SMILES: C[S+]([O-])c1ccc(C2=C(c3cccc(Cl)c3)C(=O)C(C)(C)O2)cc1 (stereo not drawn)

SMILES: CC1(C)OC(c2ccc(S(N)(=O)=O)c(F)c2)=C(c2ccc(F)cc2F)C1=O
inhibition in vivo at 3 mg/kg (Rattus norvegicus [4]): 32%

IC50 [5]: 0.0337 µM | IC50 [1]: 8.98 µM
SMILES: CC(=O)c1cccc(C2=C(c3ccc(S(N)(=O)=O)cc3)OC(C)(C)C2=O)c1

IC50 [1]: 29 µM
SMILES: C[S+]([O-])c1ccc(C2=C(c3cccc(F)c3)C(=O)C(C)(C)O2)cc1 (stereo not drawn)

SMILES: CC1(C)OC(c2ccc(S(N)(=O)=O)cc2F)=C(c2ccc(F)cc2)C1=O
ED50 (Rattus norvegicus [6]): 0.09 mg/kg

IC50 [5]: 8.71 µM | IC50 [1]: 87.1 µM
SMILES: C[S+]([O-])c1ccc(C2=C(c3ccc(F)cc3)C(=O)C(C)(C)O2)cc1 (stereo not drawn)

SMILES: CC1(C)OC(c2ccc(S(N)(=O)=O)cc2)=C(c2cccc(Cl)c2)C1=O
ED50 (Rattus norvegicus [6]): 0.03 mg/kg

SMILES: CC1(C)OC(c2ccc(S(C)(=O)=O)cc2)=C(c2cccc(F)c2)C1=O
ED50 (Rattus norvegicus [6]): 0.07 mg/kg | ED50 (Mus musculus): 8.3 mg/kg

SMILES: CC1(C)OC(c2ccc(S(C)(=O)=O)cc2)=C(c2cc(F)cc(F)c2)C1=O
ED50 (Rattus norvegicus [6]): 0.03 mg/kg

SMILES: CC1(C)OC(c2ccc(S(C)(=O)=O)cc2)=C(c2cccc(C(F)(F)F)c2)C1=O
ED50 (Rattus norvegicus [6]): 0.06 mg/kg

SMILES: COc1ccc2c(c1)c(CC(=O)O)c(C)n2C(=O)c1ccc(Cl)cc1 [INDOMETHACIN]
ED50 (Mus musculus): 7.4 mg/kg

SMILES: CC1(C)OC(c2ccc(S(N)(=O)=O)cc2)=C(c2cccc(F)c2)C1=O [POLMACOXIB]
ED50 (Rattus norvegicus [6]): 0.02 mg/kg | ED50 (Mus musculus): 12.3 mg/kg
